For 80 compounds, AC50 results are on record in PubChem BioAssay AID977621 (Broad Institute, 2014).

Records with an inconclusive call do not appear. Activity calls are given as the source filed them.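 The calls were made as follows: active = Wild-type ribosome reporter drop at least double the humanized mutant ribosome reporter drop, growth loss under a set limit; inconclusive = no clear call, values can overlap the other calls; inactive = the rest.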 Bounds are passed on as bounds.

The first assay relates to E. coli wild-type GFP strain growth, fluorescence, 24 h. Description: growth inhibition of wild-type GFP E. coli, dose response, H69 mutant RFP, cherry-pick (AID 977621).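 Also: wild-type GFP and H69 mutant RFP strains grown together 50/50 in each well.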
Settings: not given
Take `Cc1ccc(S(=O)(=O)Nc2cccc(-c3ccc(N4CCCCCC4)nn3)c2)cc1`: the AC50 (in general, the concentration giving half of the maximal activity seen) was > 100 µM (inactive).
In the case of `COc1ccc(-c2cn(-c3ccc(Cl)cc3)c3[n+]2CCCCC3)cc1`, the AC50 is > 100 µM (inactive).
On to `Cc1n[nH]c(C)c1S(=O)(=O)N1CCCC(C(=O)Nc2ccc(Br)cc2)C1` (stereo unspecified), for which the AC50 is > 100 µM (inactive).
For the compound `CC(C)Cc1nnc(NS(=O)(=O)c2ccccc2)s1`, the AC50 is > 100 µM (inactive).
Consider `Cc1ccc(OCc2nc(C#N)c(N3CCCCC3)o2)cc1`, for which the AC50 was > 100 µM (inactive).
In the case of `O=C1c2cccc3cccc(c23)C(=O)N1c1ccccc1Cl`, the AC50 was > 100 µM (inactive).
Still for that read-out and setting: under `Cc1ccc(-n2nnnc2-c2ccccc2Br)cc1` stands > 100 µM (inactive).
On to `O=C(Nc1ccc2c(c1)OCO2)c1cc(-c2ccncc2)nc2ccccc12`, for which the AC50 is > 100 µM (inactive).
For `Cc1cc(C)c(OCC(=O)OCC(=O)N2CCc3ccccc3C2)c(C)c1`, the AC50 is > 100 µM (inactive).
Turning to `Cc1ccccc1CSCC(=O)Nc1ccccc1F`, the AC50 is > 100 µM (inactive).
As to `CCCCNc1ccc2c(c1)OC[C@@H](Cc1ccccc1)NS2(=O)=O`, the AC50 was > 100 µM (inactive).
Consider `O=C(C[C@@H]1CC[C@@H]2[C@H](COC[C@H](O)CN2C(=O)Nc2ccc(Cl)cc2)O1)N1CCCCC1`, for which the AC50 was > 100 µM (inactive).
As to `O=C(Cc1ccc(NC(=O)C2CCCN(C(=O)CCc3ccccc3)C2)cc1)Nc1cccc(C(=O)N2CCCC2)c1` (stereo unspecified), the AC50 was > 100 µM (inactive).
For the compound `CC(=O)Nc1ccc(NS(=O)(=O)c2ccc(Cl)s2)cc1`, the AC50 is > 100 µM (inactive).
Take `COc1ccccc1NC(=O)Cn1cc(C(=O)c2ccco2)c2ccccc21`: the AC50 is > 100 µM (inactive).
Turning to `COc1ccccc1CCNC(=O)c1cccc(NC(=O)CC2SC(N3CCCCC3)=NC2=O)c1` (stereo unspecified), the AC50 is > 100 µM (inactive).
Still for that read-out and setting: the same measure for `COCCNc1cc(-c2ccccc2)nc2cc(-c3cccc(F)c3)nn12`: > 100 µM (inactive); for `O=C(CSc1ccc(-c2cccnc2)nn1)N1CCCc2ccccc21`: > 100 µM (inactive).
As to `CC1=Nc2cc(C(=O)NCC3CCCO3)ccc2Sc2ccc(Br)cc21` (stereo unspecified), the AC50 was > 100 µM (inactive).
On the same count and under the same terms, the same measure for `CC1(C(=O)NS(=O)(=O)c2ccc3c(c2)CCO3)CCN1C(=O)c1ccccc1CCc1ccccc1` (stereo unspecified): > 100 µM (inactive); for `O=C(Nc1cccc(Cl)c1)N1C[C@H]2[C@@H](c3ccccc31)[C@@H](CO)N2C(=O)c1ccncc1`: > 100 µM (inactive).
For `COc1ccc(CNS(=O)(=O)c2ccc3c(c2)NC(=O)C(C)S3)cc1` (stereo unspecified), the AC50 is > 100 µM (inactive).
For `O=C(CCCOc1ccccc1)NCCc1nc2ccccc2[nH]1`, the AC50 is > 100 µM (inactive).
In the case of `CC(=O)Nc1cccc(Nc2nc(-c3ccccc3)nc3ccccc23)c1`, the AC50 is > 100 µM (inactive).
For the compound `Cc1noc(C)c1NC(=O)Nc1ccc2c(c1)C(=O)N([C@@H](C)CO)C[C@H](C)[C@H](CN(C)C(=O)Nc1ccc3c(c1)OCO3)OCCCC[C@H](C)O2`, the AC50 is > 100 µM (inactive).
Take `Fc1ccc(-n2cc(CNCCc3cccnc3)c(-c3ccccc3Cl)n2)cc1`: the AC50 is > 100 µM (inactive).
Turning to `COc1cccc(NC(=O)CN(C)CC(=O)Nc2ccc(Br)cc2)c1`, the AC50 was > 100 µM (inactive).
For the compound `COc1cc(CO)cc(Br)c1OCC(=O)Nc1cccc2ccccc12`, the AC50 is > 100 µM (inactive).
Regarding `COc1ccccc1NC(=O)CN1CCSc2ccccc21`, the AC50 was > 100 µM (inactive).
On to `NC(=O)c1cc(NC(=O)c2cc(Br)c(Br)s2)cc(C(N)=O)c1`, for which the AC50 is > 100 µM (inactive).
Turning to `OC[C@H]1[C@H](c2ccc(-c3ccc(F)cc3)cc2)[C@@H]2CN(Cc3ccncc3)CCCCN12`, the AC50 is > 100 µM (inactive).
Take `O=C(NCCc1ccccn1)c1cccc(S(=O)(=O)N2CCc3ccccc32)c1`: the AC50 was > 100 µM (inactive).
With `Oc1ccc2c3c1OC1c4oc5ccccc5c4C[C@@]4(O)[C@@H](C2)N(CC2CC2)CC[C@]314` (stereo partly specified), the AC50 was > 100 µM (inactive).
As for `Cc1ccc2oc(C(=O)N(CCO)Cc3ccccc3)c(C)c2c1`, the AC50 is > 100 µM (inactive).
Turning to `O=C(CN1CCCC1)Nc1ccccc1Sc1ccc(Cl)cc1`, the AC50 was > 100 µM (inactive).
`CCCc1nc2cc(C)c(Br)c(C)n2c1CC1CCCCC1`: the AC50 is > 100 µM (inactive).
For the compound `O=C(N[C@@H](Cc1ccccc1)C(=O)OCc1ccccc1)c1nc[nH]c1C(=O)NC1CCNCC1`, the AC50 was > 100 µM (inactive).
Still for that read-out and setting: the same measure for `COc1ccc(-c2csc(NC(=O)c3ccoc3C)n2)cc1`: > 100 µM (inactive); for `CCOC(=O)c1[nH]c2ccccc2c1NC(=O)c1ccc(Br)o1`: > 100 µM (inactive); for `COc1cc(-c2cc3nc(NCCc4ccncc4)ccn3n2)cc(OC)c1OC`: > 100 µM (inactive).
With `CN1C(=O)c2cc(NC(=O)c3cccc(F)c3)ccc2OC[C@H]2O[C@@H](CC(=O)N3CCc4ccccc4C3)CC[C@@H]21`, the AC50 is > 100 µM (inactive).
Turning to `Cc1ccc(-c2nc3ccc(NS(=O)(=O)c4ccccc4)cc3[nH]2)o1`, the AC50 was > 100 µM (inactive).
On to `C=CCn1c(SCc2n[nH]c(=S)n2-c2ccccc2)nnc1-c1ccccc1`, for which the AC50 is > 100 µM (inactive).
Consider `NS(=O)(=O)c1cccc(NC(=O)c2cccc(-c3ccc(O)cc3)c2)c1`, for which the AC50 is > 100 µM (inactive).
With `Clc1ccccc1C1CC(c2ccccc2)=Nc2ccccc2N1` (stereo unspecified), the AC50 is > 100 µM (inactive).
Still for that read-out and setting: under `O=C(CC(c1ccccc1)c1cc(Br)ccc1O)N1CCCC1` (stereo unspecified) stands > 100 µM (inactive).

The same assay, now with this note: E. coli mixed culture, 24 h; measured here: total growth OD600, test 2.
`Cc1ccc(S(=O)(=O)Nc2cccc(-c3ccc(N4CCCCCC4)nn3)c2)cc1` came in with an AC50 of 28.9 µM.
Compound `O=S(=O)(c1ccc(F)cc1)N1C[C@@H]2N[C@H](C1)C2c1ccc(/C=C/c2ccccc2)cc1` (stereo partly specified) returned an AC50 of 41.3 µM.
Take `CC1CCCN(c2ccc(C(=O)NCCc3ccccc3)cn2)C1` (stereo unspecified): the AC50 was over 100 µM.
In turn, `Cc1ccc(OCc2nc(C#N)c(N3CCCCC3)o2)cc1` displayed a half-maximal activity concentration (AC50) of 42.7 µM.
`Cc1ccc(-n2nnnc2-c2ccccc2Br)cc1` yielded an AC50 of 46 µM.
Still for that read-out and setting: under `CCOc1ccccc1/C=C/c1cc(C(=O)O)c2ccccc2n1` stands 35.3 µM; under `CCOc1cccc(-c2cc(-c3n[nH]c(=S)n3CC)c3ccccc3n2)c1`, 38.3 µM; under `Cc1cc(C)c(OCC(=O)OCC(=O)N2CCc3ccccc3C2)c(C)c1`, over 100 µM.
`CCCCNc1ccc2c(c1)OC[C@@H](Cc1ccccc1)NS2(=O)=O` yielded a half-maximal activity concentration (AC50) of 32.4 µM.
Same read-out and setting: under `O=C(C[C@@H]1CC[C@@H]2[C@H](COC[C@H](O)CN2C(=O)Nc2ccc(Cl)cc2)O1)N1CCCCC1` stands 46 µM.
With `O=C(Cc1ccc(NC(=O)C2CCCN(C(=O)CCc3ccccc3)C2)cc1)Nc1cccc(C(=O)N2CCCC2)c1` (stereo unspecified), the AC50 was over 100 µM.
The same measure, in the same setting: under `O=C(COc1cc(F)ccc1[N+](=O)[O-])NCCCc1ccccc1` stands over 100 µM.
In turn, `COc1ccc(NC(=O)CCS(=O)(=O)c2ccccc2Cl)cc1S(=O)(=O)Nc1ccc(Cl)cc1` showed a concentration at half-maximal activity (AC50) of over 100 µM.
For `C=CCn1c(C)cc(C(=O)CSc2nnc(C3CC3)n2C2CC2)c1C`, the concentration at half-maximal activity (AC50) was over 100 µM.
In the case of `COc1ccccc1NC(=O)Cn1cc(C(=O)c2ccco2)c2ccccc21`, the half-maximal activity concentration (AC50) was determined as 31.3 µM.
`Cc1ccc(NC(=O)C[n+]2cc(-c3ccccc3)n3c2CCC3)cc1` yielded a concentration at half-maximal activity (AC50) of over 100 µM.
In turn, `O=C(CSc1ccc(-c2cccnc2)nn1)N1CCCc2ccccc21` gave an AC50 of over 100 µM.
`Cc1cc(C(=O)OCC(=O)Nc2cccc(S(N)(=O)=O)c2)c2ccccc2n1` gave an AC50 of over 100 µM.
For the compound `CCc1ccc(C(=O)Nc2cccnc2Oc2ccc(Cl)cc2)cc1`, the concentration at half-maximal activity (AC50) is over 100 µM.
`Cc1noc(C)c1NC(=O)Nc1ccc2c(c1)C(=O)N([C@H](C)CO)C[C@H](C)[C@H](CN(C)C(=O)Nc1ccc3c(c1)OCO3)OCCCC[C@@H](C)O2` had an AC50 of over 100 µM.
The compound `COCC(C)NC(=O)c1nn(Cc2ccccc2)c(=O)c2ccccc12` (stereo unspecified) had a half-maximal activity concentration (AC50) of 28.2 µM.
The same measure, in the same setting: under `C[C@@H]1CN([C@@H](C)CO)C(=O)c2cc(NS(=O)(=O)c3ccccc3)ccc2O[C@@H]1CN(C)Cc1ccc(C(=O)Nc2ccccc2N)cc1` stands 50.6 µM.
In turn, `CC(C)(C)c1ccc(-c2noc(CCC(=O)NCc3ccco3)n2)cc1` displayed an AC50 of over 100 µM.
On to `CCOC(=O)c1cc(C)nc(N2CCCCC2)c1C#N`, for which the concentration at half-maximal activity (AC50) is over 100 µM.
Consider `CCN(CC)CCN(C(=O)c1ccc2c(c1)CCCC2)c1nc2ccc(F)cc2s1`, for which the concentration at half-maximal activity (AC50) was found to be 32.5 µM.
In the case of `CSc1nc2ccc(NS(=O)(=O)c3ccc([N+](=O)[O-])cc3)cc2s1`, the AC50 is under 0.6 µM.
`CCCCNC(=O)c1onc(CSc2cc(C)cc(C)c2)c1C(=O)O` came in with a concentration at half-maximal activity (AC50) of 34.2 µM.
`CC(=O)Nc1cccc(Nc2nc(-c3ccccc3)nc3ccccc23)c1` showed a concentration at half-maximal activity (AC50) of 5.27 µM.
On to `CCN(C(=O)COC(=O)c1cn(-c2ccccc2)nc1-c1ccccc1)C1CCS(=O)(=O)C1` (stereo unspecified), for which the AC50 was over 100 µM.
In turn, `Fc1ccc(-n2cc(CNCCc3cccnc3)c(-c3ccccc3Cl)n2)cc1` returned a half-maximal activity concentration (AC50) of 27.8 µM.
On to `O=C(COC(=O)CCC(=O)c1ccc(F)cc1)Nc1cccc(S(=O)(=O)N2CCCC2)c1`, for which the half-maximal activity concentration (AC50) was over 100 µM.
Consider `C[C@H](CO)N1C[C@H](C)[C@H](CN(C)C(=O)Nc2ccc3c(c2)OCO3)Oc2c(NC(=O)Nc3ccccc3)cccc2C1=O`, for which the AC50 was 48.4 µM.
Consider `Cc1cc(C(=O)COC(=O)c2ccc(O)cc2)c(C)n1CC(F)(F)F`, for which the AC50 was over 100 µM.
On the same count and under the same terms, under `C[C@@H]1CN([C@H](C)CO)C(=O)c2cccc(NC(=O)Nc3ccc4c(c3)OCO4)c2O[C@@H]1CN(C)C(=O)Nc1ccc2c(c1)OCO2` stands over 100 µM.
Same read-out and setting: the same measure for `Cc1ccc(S(=O)(=O)NCc2c(-c3ccccc3)noc2C)cc1`: over 100 µM; for `COc1cc(OC)cc(C(=O)Nc2ccc(S(=O)(=O)Nc3cnc4ccccc4n3)cc2)c1`: 33 µM; for `CC1CCCC(NC(=O)COC(=O)[C@@H]2CC(O)CN2S(=O)(=O)c2ccc3c(c2)OCCO3)C1C` (stereo partly specified): over 100 µM.
The compound `Cc1ccc2oc(C(=O)N(CCO)Cc3ccccc3)c(C)c2c1` showed an AC50 of 32.4 µM.
As to `CC(=O)c1c(C)[nH]c(C(=O)Nc2nc(C)cs2)c1C`, the AC50 was over 100 µM.
`O=C1NC(CCc2ccccc2)C(=O)N1Cc1cccc2ccccc12` (stereo unspecified): the AC50 was determined as 50 µM.
In turn, `O=C(CN1CCCC1)Nc1ccccc1Sc1ccc(Cl)cc1` came in with an AC50 of 29.9 µM.
On to `CCCc1nc2cc(C)c(Br)c(C)n2c1CC1CCCCC1`, for which the AC50 was determined as 48.9 µM.
The same measure, in the same setting: under `O=C(NCc1cccnc1)C1CCN(S(=O)(=O)c2cc([N+](=O)[O-])ccc2Cl)CC1` stands over 100 µM; under `COc1ccc(-c2csc(NC(=O)c3ccoc3C)n2)cc1`, 48.8 µM; under `Cc1noc(C)c1S(=O)(=O)N(Cc1ccccc1)C(C)C`, over 100 µM.
In turn, `O=C(O)c1cc(-c2ccc(Cl)s2)nc2ccccc12` showed a half-maximal activity concentration (AC50) of over 100 µM.
On the same count and under the same terms, the same measure for `Cc1ccsc1C(=O)C1CCCN(Cc2cc(F)ccc2-n2cccn2)C1` (stereo unspecified): over 100 µM.
Compound `O=C(Nc1ccc(F)c(Cl)c1)C1CC2CCC1C2` (stereo unspecified) displayed an AC50 of over 100 µM.
`Cc1nc(SCC(=O)Nc2ccc3c(c2)OCCO3)nc(C)c1C`: the half-maximal activity concentration (AC50) is 43.7 µM.
In the case of `O=C(CC(c1ccccc1)c1cc(Br)ccc1O)N1CCCC1` (stereo unspecified), the AC50 amounted to 36.4 µM.
